From US9695144B2, “Dibenzazepine derivatives and use thereof” (Purdue Pharma L.P., priority 2013, dated 2017)
Like-named read-outs stand apart in the source and are kept apart here.

How the values were obtained:
[1] = target: human Nav1.7 (Homo sapiens, UniProt Q15858); experiment: FLIPR or FLIPR TETRA sodium dye assay for sodium channel blocking activity; format: cell-based
[2] = target: T1, hNav1.7 (Homo sapiens, UniProt Q15858); settings: read-out: Nav1.7 Activity (μM) EP assay Ki; affinity for the inactivated state of the channel; hNav1.7 HEK-293 cells
T1 sequence (Q15858 1-1977 isoform Q15858-3): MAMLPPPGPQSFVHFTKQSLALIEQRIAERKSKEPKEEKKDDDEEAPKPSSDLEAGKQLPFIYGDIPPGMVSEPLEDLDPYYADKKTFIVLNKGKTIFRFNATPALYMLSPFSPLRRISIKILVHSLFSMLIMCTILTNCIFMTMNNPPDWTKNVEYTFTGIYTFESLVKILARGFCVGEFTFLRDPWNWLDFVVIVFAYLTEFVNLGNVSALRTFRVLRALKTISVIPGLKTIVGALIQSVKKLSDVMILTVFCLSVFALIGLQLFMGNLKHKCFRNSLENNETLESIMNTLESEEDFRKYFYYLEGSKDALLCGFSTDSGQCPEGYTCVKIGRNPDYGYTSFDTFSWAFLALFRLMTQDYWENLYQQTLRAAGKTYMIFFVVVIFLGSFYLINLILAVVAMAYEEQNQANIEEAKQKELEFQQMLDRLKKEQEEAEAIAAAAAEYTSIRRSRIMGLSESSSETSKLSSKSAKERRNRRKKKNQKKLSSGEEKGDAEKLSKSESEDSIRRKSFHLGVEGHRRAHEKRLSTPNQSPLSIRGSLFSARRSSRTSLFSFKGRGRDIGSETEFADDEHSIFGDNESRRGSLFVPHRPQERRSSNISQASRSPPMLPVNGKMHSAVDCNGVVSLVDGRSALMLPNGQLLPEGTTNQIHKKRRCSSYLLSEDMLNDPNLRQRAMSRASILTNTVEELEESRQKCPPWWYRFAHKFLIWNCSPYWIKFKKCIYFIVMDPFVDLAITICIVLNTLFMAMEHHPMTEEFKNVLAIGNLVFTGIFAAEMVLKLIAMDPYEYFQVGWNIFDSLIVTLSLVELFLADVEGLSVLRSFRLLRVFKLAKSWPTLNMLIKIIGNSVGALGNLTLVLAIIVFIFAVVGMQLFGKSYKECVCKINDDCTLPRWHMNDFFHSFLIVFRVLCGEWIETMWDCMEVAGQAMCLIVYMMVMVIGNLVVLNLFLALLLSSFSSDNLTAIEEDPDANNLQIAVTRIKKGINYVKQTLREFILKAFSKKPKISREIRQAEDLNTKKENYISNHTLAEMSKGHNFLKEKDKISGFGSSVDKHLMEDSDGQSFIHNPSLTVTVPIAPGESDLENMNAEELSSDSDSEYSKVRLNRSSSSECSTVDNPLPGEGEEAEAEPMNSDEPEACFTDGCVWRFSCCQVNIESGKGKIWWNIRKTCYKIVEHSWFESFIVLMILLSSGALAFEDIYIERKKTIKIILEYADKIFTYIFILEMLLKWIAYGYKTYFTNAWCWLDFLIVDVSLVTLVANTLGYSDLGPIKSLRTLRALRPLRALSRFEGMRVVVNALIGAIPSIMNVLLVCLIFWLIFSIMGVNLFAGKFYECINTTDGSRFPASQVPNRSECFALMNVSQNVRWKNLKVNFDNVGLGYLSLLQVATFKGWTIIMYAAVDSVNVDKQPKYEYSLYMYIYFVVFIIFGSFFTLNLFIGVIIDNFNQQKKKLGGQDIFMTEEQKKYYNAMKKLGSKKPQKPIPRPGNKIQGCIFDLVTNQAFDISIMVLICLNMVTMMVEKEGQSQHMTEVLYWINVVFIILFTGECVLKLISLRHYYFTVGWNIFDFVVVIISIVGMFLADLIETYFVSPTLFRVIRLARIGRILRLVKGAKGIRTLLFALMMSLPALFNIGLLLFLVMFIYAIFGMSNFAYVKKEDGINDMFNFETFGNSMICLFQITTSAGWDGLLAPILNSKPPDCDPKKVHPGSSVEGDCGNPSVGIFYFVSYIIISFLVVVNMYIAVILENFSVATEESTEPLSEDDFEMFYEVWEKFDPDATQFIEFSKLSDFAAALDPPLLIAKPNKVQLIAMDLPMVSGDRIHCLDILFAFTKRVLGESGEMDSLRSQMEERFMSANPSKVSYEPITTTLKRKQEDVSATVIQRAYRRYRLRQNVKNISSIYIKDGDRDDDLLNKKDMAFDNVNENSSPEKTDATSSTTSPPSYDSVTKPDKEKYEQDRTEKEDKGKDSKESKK

[3] = target: T1, hNav1.7; experiment: cell-based
[4] = target: Nav1.3 (Homo sapiens, UniProt Q9NY46); settings: read-out: TTX IC50; cited from earlier work
[5] = target: Nav1.6 (Homo sapiens, UniProt Q9UQD0); settings: read-out: TTX IC50; cited from earlier work
[6] = target: Nav1.8 (Homo sapiens, UniProt Q9Y5Y9); settings: read-out: TTX IC50; cited from earlier work
Sequence of Nav1.8 (Q9Y5Y9 whole entry, looked up): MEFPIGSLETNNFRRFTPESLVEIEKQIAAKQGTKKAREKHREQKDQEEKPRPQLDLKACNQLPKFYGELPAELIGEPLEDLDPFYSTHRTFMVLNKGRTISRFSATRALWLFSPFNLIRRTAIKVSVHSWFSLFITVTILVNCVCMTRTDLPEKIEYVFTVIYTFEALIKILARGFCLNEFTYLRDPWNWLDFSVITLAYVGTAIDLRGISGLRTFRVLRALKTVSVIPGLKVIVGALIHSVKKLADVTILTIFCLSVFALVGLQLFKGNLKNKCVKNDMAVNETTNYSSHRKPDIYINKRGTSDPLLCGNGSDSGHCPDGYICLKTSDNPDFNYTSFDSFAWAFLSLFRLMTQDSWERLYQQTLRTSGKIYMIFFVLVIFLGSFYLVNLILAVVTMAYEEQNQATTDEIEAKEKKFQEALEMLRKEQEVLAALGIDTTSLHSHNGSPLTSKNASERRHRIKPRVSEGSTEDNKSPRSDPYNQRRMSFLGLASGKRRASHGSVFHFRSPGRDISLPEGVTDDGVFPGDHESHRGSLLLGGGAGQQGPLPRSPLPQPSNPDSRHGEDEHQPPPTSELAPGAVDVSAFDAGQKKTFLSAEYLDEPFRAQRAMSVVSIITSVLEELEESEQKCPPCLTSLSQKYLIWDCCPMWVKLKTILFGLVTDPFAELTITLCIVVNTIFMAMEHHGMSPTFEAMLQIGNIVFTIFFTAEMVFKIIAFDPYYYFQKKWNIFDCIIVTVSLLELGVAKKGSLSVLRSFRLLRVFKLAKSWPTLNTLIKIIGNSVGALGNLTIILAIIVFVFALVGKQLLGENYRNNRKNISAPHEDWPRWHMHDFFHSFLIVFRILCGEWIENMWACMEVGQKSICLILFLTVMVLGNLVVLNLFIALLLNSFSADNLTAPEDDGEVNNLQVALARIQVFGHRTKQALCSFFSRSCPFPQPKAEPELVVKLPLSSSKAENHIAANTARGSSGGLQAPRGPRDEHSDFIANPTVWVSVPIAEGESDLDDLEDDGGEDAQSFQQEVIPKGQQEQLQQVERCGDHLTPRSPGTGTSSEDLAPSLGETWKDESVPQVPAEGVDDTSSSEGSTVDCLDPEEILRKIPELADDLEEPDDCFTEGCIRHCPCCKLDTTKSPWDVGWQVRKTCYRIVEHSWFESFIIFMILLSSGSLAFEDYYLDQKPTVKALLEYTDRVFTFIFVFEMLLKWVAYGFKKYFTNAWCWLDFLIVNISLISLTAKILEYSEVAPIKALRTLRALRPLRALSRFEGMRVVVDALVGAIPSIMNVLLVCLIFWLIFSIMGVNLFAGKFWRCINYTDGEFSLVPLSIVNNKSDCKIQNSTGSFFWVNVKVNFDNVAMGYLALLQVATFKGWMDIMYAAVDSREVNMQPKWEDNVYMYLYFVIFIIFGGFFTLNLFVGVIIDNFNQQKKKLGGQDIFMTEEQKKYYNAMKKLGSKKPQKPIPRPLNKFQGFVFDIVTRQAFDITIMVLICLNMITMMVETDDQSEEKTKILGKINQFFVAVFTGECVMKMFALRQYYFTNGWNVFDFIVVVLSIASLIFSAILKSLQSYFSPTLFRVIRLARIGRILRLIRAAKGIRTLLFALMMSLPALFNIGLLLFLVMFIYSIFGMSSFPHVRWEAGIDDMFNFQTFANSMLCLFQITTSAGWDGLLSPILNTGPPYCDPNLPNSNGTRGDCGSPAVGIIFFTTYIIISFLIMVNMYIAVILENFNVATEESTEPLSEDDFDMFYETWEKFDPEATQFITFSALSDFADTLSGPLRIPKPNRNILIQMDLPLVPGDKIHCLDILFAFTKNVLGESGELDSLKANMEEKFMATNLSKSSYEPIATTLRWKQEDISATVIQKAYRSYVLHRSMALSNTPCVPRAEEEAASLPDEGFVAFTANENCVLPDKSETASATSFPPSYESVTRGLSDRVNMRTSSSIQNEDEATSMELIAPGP

[7] = target: Nav1.9 (Homo sapiens, UniProt Q9UI33); settings: read-out: TTX IC50; cited from earlier work
[8] = target: Nav1.1 (Homo sapiens, UniProt P35498); settings: read-out: TTX IC50; cited from earlier work
[9] = target: Nav1.2 (Homo sapiens, UniProt Q99250); settings: read-out: TTX IC50; cited from earlier work
[10] = read-out: Nav1.7 Activity (μM) FLIPR assay IC50
[11] = recombinant HEK293 cells expressing human Nav1.7 alpha subunit, veratridine and scorpion venom as agonists, read-out: Nav1.7 Activity (μM) FLIPR assay IC50

Sequence of human Nav1.7 (Q15858 1-1977 isoform Q15858-3): as the sequence (Q15858 1-1977 isoform Q15858-3) above

Compound `CN1c2ccc(Cl)cc2CCc2cc(-c3cccc(C(N)=O)n3)ccc21` [Compound 39, 6-(8-chloro-5-methyl-10,11-dihydro-5H-dibenzo[b,f]azepin-2-yl)picolinamide] has an IC50 [1, 10] of 0.842 ± 0.04 µM.

In the case of `NC(=O)c1cccc(-c2ccc3c(c2)CCc2cc(Cl)ccc2N3)n1` [Compound 40, 6-(8-chloro-10,11-dihydro-5H-dibenzo[b,f]azepin-2-yl)picolinamide], the IC50 [1, 10] is reported as 1.96 ± 0.036 µM and the Ki [2] is reported as 0.648 ± 0.123 µM.

`CCN1c2ccc(Cl)cc2CCc2cc(-c3cccc(C(N)=O)n3)ccc21` [Compound 41, 6-(8-chloro-5-ethyl-10,11-dihydro-5H-dibenzo[b,f]azepin-2-yl)picolinamide] showed an IC50 [1] of over 20 µM.

Compound `CC(=O)N1c2ccc(Cl)cc2CCc2cc(-c3cccc(C(N)=O)n3)ccc21` [Compound 42, 6-(5-acetyl-8-chloro-10,11-dihydro-5H-dibenzo[b,f]azepin-2-yl)picolinamide] has an IC50 [1, 10] of 7.62 ± 0.797 µM and a Ki [2] of 3.03 ± 1.26 µM.

Work on `OC[C@@H](O)c1cccc(-c2ccc3c(c2)CNc2cc(C(F)(F)F)ccc2O3)n1` [Compound 43, (S)-1-(6-(8-(trifluoromethyl)-10,11-dihydrodibenzo[b,f][1,4]oxazepin-2-yl)pyridin-2-yl)ethane-1,2-diol] yielded an IC50 [1, 10] of 2.57 ± 0.059 µM.

For `CN1Cc2cc(-c3cccc([C@H](O)CO)n3)ccc2Oc2ccc(C(F)(F)F)cc21` [Compound 44, (S)-1-(6-(10-methyl-8-(trifluoromethyl)-10,11-dihydrodibenzo[b,f][1,4]oxazepin-2-yl)pyridin-2-yl)ethane-1,2-diol], the IC50 [1, 11] was 0.373 ± 0.047 µM.

`CN1Cc2cc(C(F)(F)F)ccc2Oc2ccc(-c3cccc([C@H](O)CO)n3)cc21` [Compound 45, (S)-1-(6-(10-methyl-2-(trifluoromethyl)-10,11-dihydrodibenzo[b,f][1,4]oxazepin-8-yl)pyridin-2-yl)ethane-1,2-diol] gave an IC50 [1, 10] of 1.03 ± 0.067 µM.

Compound `CN1c2ccc(-c3cccc([C@H](O)CO)n3)cc2CCc2cc(C(F)(F)F)ccc21` [Compound 46, (S)-1-(6-(5-methyl-8-(trifluoromethyl)-10,11-dihydro-5H-dibenzo[b,f]azepin-2-yl)pyridin-2-yl)ethane-1,2-diol] has an IC50 [1, 10] of 1.08 ± 0.106 µM and a Ki [2] of 1.03 ± 0.227 µM.

`C[C@H](Nc1cc(C(N)=O)nc(-c2ccc3c(c2)CN(C)c2cc(C(F)(F)F)ccc2O3)n1)C(N)=O` [Compound 47, (S)-6-((1-amino-1-oxopropan-2-yl)amino)-2-(10-methyl-8-(trifluoromethyl)-10,11-dihydrodibenzo[b,f][1,4]oxazepin-2-yl)pyrimidine-4-carboxamide] gave an IC50 [1, 11] of 4.79 ± 0.628 µM.

`CN1Cc2cc(-c3cccc([C@H](O)[C@@H](O)C(N)=O)n3)ccc2Oc2ccc(C(F)(F)F)cc21` [Compound 48, (2R,3S)-2,3-dihydroxy-3-(6-(10-methyl-8-(trifluoromethyl)-10,11-dihydrodibenzo[b,f][1,4]oxazepin-2-yl)pyridin-2-yl)propanamide] showed an IC50 [1, 10] of 1.05 ± 0.069 µM.

In the case of `NC(=O)CN1Cc2cc(-c3cccc([C@H](O)CO)n3)ccc2Oc2ccc(C(F)(F)F)cc21` [Compound 49, (S)-2-(2-(6-(1,2-dihydroxyethyl)pyridin-2-yl)-8-(trifluoromethyl)dibenzo-[b,f][1,4]oxazepin-10(11H)-yl)acetamide], the Ki [3] is reported as 1.8 ± 0.794 µM.

In the case of `NC1=N[C@H](O)[C@H]2[C@H]3O[C@]4(O)O[C@@H]([C@@H](O)[C@@]2(N1)[C@@H]4O)[C@]3(O)CO` [TTX, tetrodotoxin], the IC50 [4] is given as 0.015 µM, the IC50 [5] is given as 0.006 µM and the IC50 [6] is given as 50 µM. The IC50 [7] was 1 µM, the IC50 [8] was 0.01 µM and the IC50 [9] was 0.01 µM.
